# Experimental data published in patent EP0908457B1, “3-(1,2-benzisothiazol- and isoxazol-5-Y1)-2,4(1H,3H)-pyrimidinedione or thione and 3-(1,2-benzisothiazol- and isoxazol-5-y1)-4(3H)-pyrimidinone or thione herbicidal agents” (BASF AKTIENGESELLSCHAFT, priority 1997, dated 1999).
# Columns and labels:
# Sagittaria pygmaea, L. [1] = experiment: Postemergence weed control under flooded paddy conditions, SAGPY (Arrowhead (Pygmaea)); type: in vivo; conditions: rated three to four weeks after treatment
# [2] = test system: Monochoria vaginalis, Presl.; experiment: Preemergence weed control under flooded paddy conditions, MOOVA (Monochoria); type: in vivo; conditions: for MOOVA herbicidal effect rating: preemergence, flooded paddy, rated three to four weeks after treatment; as to herbicidal effect rating, MOOVA: meaning of each grade not given here
# [3] = test system: Oryza sativa, (L.) Tebonnet; experiment: Rice tolerance to post-transplant applications under flooded paddy conditions (Example 188), ORYSAT (Rice, Tebonnet); conditions: rated three to four weeks after treatment
# Cyperus iria [4] = experiment: Preemergence weed control under flooded paddy conditions, CYPIR (Rice Flatsedge); type: in vivo; conditions: for CYPIR herbicidal effect rating: preemergence, flooded paddy, rated three to four weeks after treatment; as to herbicidal effect rating, CYPIR: meaning of each grade not given here
# Sagittaria pygmaea, L. [5] = experiment: Preemergence weed control under flooded paddy conditions, SAGPY (Arrowhead (Pygmaea)); type: in vivo; conditions: preemergence, flooded paddy, rated three to four weeks after treatment
# [6] = test system: Cyperus serotinus, Rottb.; experiment: Preemergence weed control under flooded paddy conditions, CYPSE (Flatsedge); type: in vivo; conditions: preemergence, rated three to four weeks after treatment
# [7] = test system: Monochoria vaginalis, Presl.; experiment: Postemergence weed control under flooded paddy conditions, MOOVA (Monochoria); type: in vivo; conditions: rated three to four weeks after treatment
# Cyperus iria [8] = experiment: Postemergence weed control under flooded paddy conditions, CYPIR (Rice Flatsedge); type: in vivo; conditions: rated three to four weeks after treatment
# [9] = test system: Cyperus serotinus, Rottb.; experiment: Postemergence weed control under flooded paddy conditions, CYPSE (Flatsedge); type: in vivo; conditions: rated three to four weeks after treatment
# [10] = test system: Echinochloa oryzoides (Ard.) Fritsch.; experiment: Postemergence weed control under flooded paddy conditions, ECHORC (Watergrass (Calif.)); type: in vivo; conditions: rated three to four weeks after treatment
# [11] = test system: Oryza sativa, (L.) Tebonnet; experiment: Rice tolerance to post-transplant applications under flooded paddy conditions (Example 187), ORYSAT (Rice, Tebonnet); conditions: rated three to four weeks after treatment
# [12] = test system: Echinochloa oryzoides (Ard.) Fritsch.; experiment: Preemergence weed control under flooded paddy conditions, ECHORC (Watergrass (Calif.)); type: in vivo; conditions: for ECHORC herbicidal effect rating: preemergence, flooded paddy, rated three to four weeks after treatment; as to herbicidal effect rating, ECHORC: meaning of each grade not given here
smiles,measurement,setting,value
"COC(=O)COc1ccc(C)cc1-c1noc2ccc(-n3c(=O)cc(C(F)(F)F)n(C)c3=O)c(Cl)c12 [Example 261, Acetic acid, {{2-{4-chloro-5-[3,6-dihydro-3-methyl-2,6-dioxo-4-(trifluoromethyl)-1(2H)-pyrimidinyl]-1,2-benzisoxazol-3-yl}-p-tolyl}oxy}-, methyl ester]","herbicidal effect rating, SAGPY","Sagittaria pygmaea, L. [1]; Rate 0.0320 kg/ha",0.0
same,"herbicidal effect rating, SAGPY","Sagittaria pygmaea, L. [1]; Rate 0.0620 kg/ha",0.0
same,"herbicidal effect rating, SAGPY","Sagittaria pygmaea, L. [1]; Rate 0.1250 kg/ha",0.0
same,"herbicidal effect rating, SAGPY","Sagittaria pygmaea, L. [1]; Rate 0.2500 kg/ha",0.0
same,MOOVA herbicidal effect rating,[2]; Rate 0.0320 kg/ha,4.5
same,MOOVA herbicidal effect rating,[2]; Rate 0.0620 kg/ha,4.5
same,MOOVA herbicidal effect rating,[2]; Rate 0.1250 kg/ha,6.0
same,MOOVA herbicidal effect rating,[2]; Rate 0.2500 kg/ha,3.0
same,"herbicidal effect rating, ORYSAT (rice tolerance)",[3]; Rate 0.0320 kg/ha,0.0
same,"herbicidal effect rating, ORYSAT (rice tolerance)",[3]; Rate 0.0620 kg/ha,0.0
same,"herbicidal effect rating, ORYSAT (rice tolerance)",[3]; Rate 0.1250 kg/ha,0.0
same,"herbicidal effect rating, ORYSAT (rice tolerance)",[3]; Rate 0.2500 kg/ha,0.0
same,CYPIR herbicidal effect rating,Cyperus iria [4]; Rate 0.0320 kg/ha,4.0
same,CYPIR herbicidal effect rating,Cyperus iria [4]; Rate 0.0620 kg/ha,4.5
same,CYPIR herbicidal effect rating,Cyperus iria [4]; Rate 0.1250 kg/ha,5.5
same,CYPIR herbicidal effect rating,Cyperus iria [4]; Rate 0.2500 kg/ha,2.0
same,SAGPY herbicidal effect rating,"Sagittaria pygmaea, L. [5]; Rate 0.0320 kg/ha",0.0
same,SAGPY herbicidal effect rating,"Sagittaria pygmaea, L. [5]; Rate 0.0620 kg/ha",0.0
same,SAGPY herbicidal effect rating,"Sagittaria pygmaea, L. [5]; Rate 0.1250 kg/ha",0.0
same,SAGPY herbicidal effect rating,"Sagittaria pygmaea, L. [5]; Rate 0.2500 kg/ha",0.0
same,CYPSE herbicidal effect rating,[6]; Rate 0.0320 kg/ha,4.5
same,CYPSE herbicidal effect rating,[6]; Rate 0.0620 kg/ha,4.5
same,CYPSE herbicidal effect rating,[6]; Rate 0.1250 kg/ha,4.5
same,CYPSE herbicidal effect rating,[6]; Rate 0.2500 kg/ha,0.0
same,"herbicidal effect rating, MOOVA",[7]; Rate 0.0320 kg/ha,9.0
same,"herbicidal effect rating, MOOVA",[7]; Rate 0.0620 kg/ha,9.0
same,"herbicidal effect rating, MOOVA",[7]; Rate 0.1250 kg/ha,9.0
same,"herbicidal effect rating, MOOVA",[7]; Rate 0.2500 kg/ha,9.0
same,"herbicidal effect rating, CYPIR",Cyperus iria [8]; Rate 0.0320 kg/ha,5.0
same,"herbicidal effect rating, CYPIR",Cyperus iria [8]; Rate 0.0620 kg/ha,6.0
same,"herbicidal effect rating, CYPIR",Cyperus iria [8]; Rate 0.1250 kg/ha,6.0
same,"herbicidal effect rating, CYPIR",Cyperus iria [8]; Rate 0.2500 kg/ha,6.0
same,"herbicidal effect rating, CYPSE",[9]; Rate 0.0320 kg/ha,0.0
same,"herbicidal effect rating, CYPSE",[9]; Rate 0.0620 kg/ha,0.0
same,"herbicidal effect rating, CYPSE",[9]; Rate 0.1250 kg/ha,0.0
same,"herbicidal effect rating, CYPSE",[9]; Rate 0.2500 kg/ha,0.0
same,"herbicidal effect rating, ECHORC",[10]; Rate 0.0320 kg/ha,0.0
same,"herbicidal effect rating, ECHORC",[10]; Rate 0.0620 kg/ha,0.0
same,"herbicidal effect rating, ECHORC",[10]; Rate 0.1250 kg/ha,0.0
same,"herbicidal effect rating, ECHORC",[10]; Rate 0.2500 kg/ha,0.0
same,ORYSAT herbicidal effect rating,[11]; Rate 0.0320 kg/ha,0.0
same,ORYSAT herbicidal effect rating,[11]; Rate 0.0620 kg/ha,0.0
same,ORYSAT herbicidal effect rating,[11]; Rate 0.1250 kg/ha,0.0
same,ORYSAT herbicidal effect rating,[11]; Rate 0.2500 kg/ha,0.0
same,ECHORC herbicidal effect rating,[12]; Rate 0.0320 kg/ha,2.5
same,ECHORC herbicidal effect rating,[12]; Rate 0.0620 kg/ha,2.0
same,ECHORC herbicidal effect rating,[12]; Rate 0.1250 kg/ha,2.0
same,ECHORC herbicidal effect rating,[12]; Rate 0.2500 kg/ha,0.0
"COC(=O)C(C)Oc1ccc(C)cc1-c1nsc2ccc(-n3c(=O)cc(C(F)(F)F)n(C)c3=O)cc12 (stereo not drawn) [Example 3, Methyl 2-{{2-{5-[3,6-dihydro-3-methyl-4-(trifluoromethyl)-2,6-dioxo-1(2H)-pyrimidinyl]-1,2-benzisothiazol-3-yl}-p-tolyl}oxy}propionate]","herbicidal effect rating, SAGPY","Sagittaria pygmaea, L. [1]; Rate 0.0313 kg/ha",0.0
same,"herbicidal effect rating, SAGPY","Sagittaria pygmaea, L. [1]; Rate 0.0625 kg/ha",0.0
same,"herbicidal effect rating, SAGPY","Sagittaria pygmaea, L. [1]; Rate 0.1250 kg/ha",0.0
same,"herbicidal effect rating, SAGPY","Sagittaria pygmaea, L. [1]; Rate 0.2500 kg/ha",0.0
same,"herbicidal effect rating, SAGPY","Sagittaria pygmaea, L. [1]; Rate 0.5000 kg/ha",0.0
same,"herbicidal effect rating, MOOVA",[2]; in vivo,9.0
same,"herbicidal effect rating, ORYSAT (rice tolerance)",[3]; Rate 0.0313 kg/ha,2.0
same,"herbicidal effect rating, ORYSAT (rice tolerance)",[3]; Rate 0.0625 kg/ha,2.0
same,"herbicidal effect rating, ORYSAT (rice tolerance)",[3]; Rate 0.1250 kg/ha,3.0
same,"herbicidal effect rating, ORYSAT (rice tolerance)",[3]; Rate 0.2500 kg/ha,3.0
same,"herbicidal effect rating, ORYSAT (rice tolerance)",[3]; Rate 0.5000 kg/ha,3.0
same,"herbicidal effect rating, CYPIR",Cyperus iria [4]; in vivo,9.0
same,"herbicidal effect rating, MOOVA",[7]; Rate 0.0313 kg/ha,9.0
same,"herbicidal effect rating, MOOVA",[7]; Rate 0.0625 kg/ha,9.0
same,"herbicidal effect rating, MOOVA",[7]; Rate 0.1250 kg/ha,9.0
same,"herbicidal effect rating, MOOVA",[7]; Rate 0.2500 kg/ha,9.0
same,"herbicidal effect rating, MOOVA",[7]; Rate 0.5000 kg/ha,9.0
same,"herbicidal effect rating, CYPIR",Cyperus iria [8]; Rate 0.0313 kg/ha,9.0
same,"herbicidal effect rating, CYPIR",Cyperus iria [8]; Rate 0.0625 kg/ha,9.0
same,"herbicidal effect rating, CYPIR",Cyperus iria [8]; Rate 0.1250 kg/ha,9.0
same,"herbicidal effect rating, CYPIR",Cyperus iria [8]; Rate 0.2500 kg/ha,9.0
same,"herbicidal effect rating, CYPIR",Cyperus iria [8]; Rate 0.5000 kg/ha,9.0
same,"herbicidal effect rating, CYPSE",[9]; Rate 0.0313 kg/ha,0.0
same,"herbicidal effect rating, CYPSE",[9]; Rate 0.0625 kg/ha,0.0
same,"herbicidal effect rating, CYPSE",[9]; Rate 0.1250 kg/ha,0.0
same,"herbicidal effect rating, CYPSE",[9]; Rate 0.2500 kg/ha,0.0
same,"herbicidal effect rating, CYPSE",[9]; Rate 0.5000 kg/ha,0.0
same,"herbicidal effect rating, ECHORC",[10]; Rate 0.0313 kg/ha,0.0
same,"herbicidal effect rating, ECHORC",[10]; Rate 0.0625 kg/ha,0.0
same,"herbicidal effect rating, ECHORC",[10]; Rate 0.1250 kg/ha,0.0
same,"herbicidal effect rating, ECHORC",[10]; Rate 0.2500 kg/ha,2.0
same,"herbicidal effect rating, ECHORC",[10]; Rate 0.5000 kg/ha,4.0
same,"herbicidal effect rating, ECHORC",[12]; in vivo,9.0
